Results on 1 compound are retold here after patent US20240165097A1, “PHARMACEUTICAL COMPOSITION FOR THE TREATMENT OF ALZHEIMER'S DISEASE OR DEMENTIA” (Heptares Therapeutics Limited, priority 2021, published 2024).

For the assay, the system named is patients with mild-to-moderate AD. Description: Example D: EEG and evoked response potentials. It is filed as in vivo, human. As for the experimental part: Exploratory pharmacodynamic endpoints (Cogstate tests and EEG/evoked response potential [ERP] biomarkers) were evaluated at screening (practice sessions) and baseline visits, and on Day 28±1. While this study was not powered to detect PD effects of small to moderate ESs, the study sample size provided approximately 80% power to detect a large ES of 0.97 for these endpoints using a significance level of 0.10.
Brain activity was measured at rest using EEG, and during presentation of auditory stimuli using ERPs. The following EEG and ERP parameters were examined because of their sensitivities in detecting brain activity abnormalities at rest and during cognitive processing in patients with AD (Dierks T, Ihl R, Frolich L, Maurer K. Psychiatry Res. 1993; 50(3):151-162; Hedges D, Janis R, Mickelson S, Keith C, Bennett D, Brown B L. Clin EEG Neurosci. 2016; 47(1):48-55; Pekkonen E. Audiol Neurootol. 2000; 5(3-4):216-224): • Resting state power in the delta, theta, alpha, beta and gamma frequency bands measured by EEG activity during eyes open and eyes closed conditions (3 minutes each). • ERP markers (approximately 45 minutes) • Mismatch negativity (MMN; sensory gating/change detection)—amplitude and latency • P300-P3a and P3b (attention and working memory updating)—amplitude and latency • 40 Hz auditory steady-state response (ASSR; gamma oscillations and synchrony)—gamma-band evoked power and phase locking
EEG and ERP markers were quantified using the following paradigms: • Resting state paradigm (6 minutes): EEGs were recorded while patients were sitting with their eyes open (3 minutes) and closed (3 minutes) for frequency band-power analyses in the delta, theta, alpha, beta, and gamma frequency bands. Primary dependent measure was mean normalised power at Cz electrode in the eyes open and closed conditions. • Passive auditory oddball paradigm (23 minutes): Patients were instructed to ignore auditory stimuli while viewing a silent movie. Patients listened to a pseudorandom sequence of 85 dB tones (5 msec rise/fall times, 500 msec stimulus onset asynchrony); 85% were standards (50 msec, 1 kHz) and 15% were deviants that differed in both duration and pitch (125 msec, 1.5 kHz). Event-related potentials were generated in response to standard and deviant waveforms. Deviant minus standard difference waves were generated. The primary dependent measures were MMN amplitude and latency at Fz and FCComp electrodes (an average of frontal electrodes). • 40 Hz ASSR paradigm (8 minutes): Gamma steady-state responses were assessed in response to 1 ms 85 dB white noise clicks presented in 500 ms trains at a frequency of 40 Hz, with an inter-train interval of 1 second. A total of 500 click trains were presented. The primary dependent measure was gamma-band—evoked power and gamma phase locking at Fz and FCComp electrodes. • Active auditory oddball paradigm (11 minutes): Patients listened to a pseudorandom sequence of 85 dB tones (5 msec rise/fall times, 1500 msec stimulus onset asynchrony); 80% were standards (50 msec, 1 kHz) and 20% were targets (500 msec, 0.5 kHz). Patients were instructed to press a button when they heard target stimuli. ERPs were generated in response to target tones (P3b). The primary dependent measures were P3b amplitude and latency at CPComp electrodes (an average of central and parietal electrodes).
Patient data were collected from a 64-electrode cap onto a qualified and validated study system operated by site personnel who were specifically trained and certified for the study. The EEGs obtained at each patient visit were reviewed qualitatively by the study EEG expert (who remained blinded to dose allocation) and feedback was provided directly to the relevant site personnel on an ongoing basis and within 2 days of the assessment, to minimise issues from inter-site variability and to ensure the highest possible levels of consistency and reproducibility with respect to the EEG procedures. […]

Consider `CCOC(=O)N1C2CCC1CC(N1CCC3(CC1)CNC(=O)C3)C2` (stereo not drawn) [HTL0018318, ethyl 3-(3-oxo-2,8-diazaspiro[4.5]dec-8-yl)-8-azabicyclo[3.2.1]octane-8-carboxylate], for which, under “5 mg, Day 28”, the “MMN amplitude at Fz electrode, ES” value is recorded as −0.84; the “MMN amplitude at Fz electrode, LSM difference from placebo” value is reported as −0.82 uV; the “peak P3b latency at CPComp electrodes, ES” value is recorded as −0.81; the “peak P3b latency at CPComp electrodes, LSM difference from placebo” value is -38 ms. Under “15 mg, Day 28”, the “MMN amplitude at Fz electrode, ES” value is −0.64; the “MMN amplitude at Fz electrode, LSM difference from placebo” value is recorded as −0.63 uV; the “P3a amplitude at Fz electrode, ES” value was −0.73; the “P3a amplitude at Fz electrode, LSM difference from placebo” value is reported as −0.84 uV. Also, for the setting “15 mg, Day 28”, the “delta power at Cz electrode, eyes open, ES” value stood at 0.75; the “delta power at Cz electrode, eyes open, LSM difference from placebo” value is 3.8; the “peak P3b latency at CPComp electrodes” value is listed as “no significant decrease”. Further, for the setting “across all 3 doses”, the “P3b mean amplitude at CPComp electrodes, ESs” value is on record as 0.22-0.44. Moreover, for the setting “all HTL0018318 doses”, the “MMN, mean ES” value is 0.6; the “P3b amplitude, ES” value was 0.33; the “P3b latency, ES” value amounted to 0.42; the “eyes open delta power, mean ES” value was 0.52. The “peak MMN latency” value (all doses) is given as “No statistically significant improvements”. Also, for the setting “any HTL0018318 dose”, the “40 Hz ASSR gamma-band evoked power or phase locking at Fz electrode” value was “no significant effects”.
